For seven compounds, GI50 and TGI results are on record in PubChem BioAssay (NCI).

Values joined by “and” are separate entries in the source; they are usually repeats but may differ in a detail not shown here. Equal entries are not always repeated.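 Briefly, cells in 96-well plates were exposed to five compound concentrations for 48 h, and endpoints were estimated by linear interpolation. GI50 is the concentration that inhibits growth by half. Definition used: TGI = concentration required for complete inhibition of growth.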 Bounds are passed on as bounds.

Some test systems named below: OVCAR-8 ovarian; SNB-75 CNS; NCI-H460 lung; U251 CNS; DU-145 prostate; HT29 colon; MCF7 breast; RXF 393 renal; A498 renal; K-562 leukemia.
What all share (assay): growth of human tumour cells (NCI), 48 h

With `COc1ccc(/C=C(\C#N)n2nnc3c(F)cccc32)cc1`, the GI50 is 0.532 µM with OVCAR-8 ovarian; 0.17 µM in the assay on SNB-75 CNS; 0.413 µM with NCI-H460 lung; 0.41 µM with U251 CNS; 0.503 µM in the assay on DU-145 prostate; 0.286 µM with HT29 colon. In addition, the GI50 in the assay on MCF7 breast was 0.715 µM; in the assay on RXF 393 renal it was 0.182 µM; in the assay on A498 renal, 0.22 µM; in the assay with K-562 leukemia it was 0.0645 µM. Moreover, the TGI in the assay on OVCAR-8 ovarian is above 34.5 µM; in the assay on SNB-75 CNS it was 0.517 µM; with NCI-H460 lung, above 100 µM; in the assay with U251 CNS, 17.7 µM; in the assay on DU-145 prostate it was above 40.2 µM; with MCF7 breast, above 100 µM. Besides, the TGI is 0.572 µM with RXF 393 renal, 1.04 µM in the assay on A498 renal and above 100 µM in the assay with K-562 leukemia.
Consider `C=CCN1CC(=O)N2[C@@H](Cc3ccc(O)cc3F)C(=O)N(Cc3cccc(N4CC(N5CCN(CC)CC5)C4)n3)C[C@@H]2N1C(=O)NCc1ccccc1`, for which the GI50 was 0.0295 µM in the assay on OVCAR-8 ovarian; 0.017 µM in the assay on SNB-75 CNS; 0.038 µM with NCI-H460 lung; 0.0319 µM in the assay with U251 CNS; 0.0844 µM with DU-145 prostate; 0.0537 µM with HT29 colon. The GI50 was 0.524 µM in the assay on MCF7 breast, 0.231 µM with RXF 393 renal, below 0.0118 µM in the assay on A498 renal and 0.0397 µM in the assay with K-562 leukemia. In addition, the TGI in the assay with SNB-75 CNS is 0.131 µM; with NCI-H460 lung, above 100 µM; with U251 CNS it was above 100 µM; in the assay with DU-145 prostate, above 100 µM; in the assay on HT29 colon it was 16.2 µM; in the assay with MCF7 breast it was above 100 µM. The results for the TGI in the assay with RXF 393 renal, in the assay with A498 renal and in the assay on K-562 leukemia were 6.85 µM, 0.0666 µM and above 100 µM, respectively.
`Cc1cc(N=Nc2ccccc2C)ccc1N`: the GI50 in the assay on OVCAR-8 ovarian is 20.7 µM; in the assay with SNB-75 CNS, 4.1 µM; in the assay with NCI-H460 lung it was 12.3 µM; in the assay with DU-145 prostate, 9.35 µM; with MCF7 breast, 16.5 µM; in the assay on RXF 393 renal it was 15.1 µM. Further, the GI50 with A498 renal is 4.38 µM; with K-562 leukemia, 12.8 µM. The TGI in the assay on OVCAR-8 ovarian was 34.6 µM and 96.4 µM; with SNB-75 CNS it was 28.1 µM and 31.9 µM; in the assay with NCI-H460 lung it was 17.7 µM and 31.2 µM; with U251 CNS, 35.7 µM and 30.4 µM; with DU-145 prostate it was 27.2 µM; in the assay with HT29 colon, 33.3 µM and 38.2 µM. Moreover, the TGI with MCF7 breast was 36.2 µM and 43.6 µM; in the assay on RXF 393 renal it was 22.9 µM and 33.7 µM; in the assay on A498 renal, 44.3 µM and 23.8 µM; with K-562 leukemia, 32.8 µM and > 100 µM.
With `COC(=O)c1cncc(/C=C/c2c(C)cc(O)cc2C)c1`, the GI50 in the assay on OVCAR-8 ovarian is 17.9 µM; with SNB-75 CNS it was above 9.93 µM; with NCI-H460 lung, 8.95 µM; in the assay with U251 CNS, above 16.7 µM; in the assay on DU-145 prostate, 13.6 µM; in the assay on HT29 colon, above 15.4 µM. Moreover, the GI50 in the assay with MCF7 breast is 11.5 µM; in the assay with RXF 393 renal, 5.97 µM; in the assay on A498 renal it was 11 µM; in the assay on K-562 leukemia it was 2.32 µM. Besides, the TGI was above 25 µM in the assay with OVCAR-8 ovarian; above 18.8 µM in the assay on SNB-75 CNS; above 25 µM in the assay with NCI-H460 lung; above 25 µM in the assay on U251 CNS; above 25 µM with DU-145 prostate; above 25 µM with HT29 colon. The TGI in the assay on MCF7 breast is above 18.7 µM; in the assay on RXF 393 renal it was 16.7 µM; in the assay with A498 renal, above 25 µM; in the assay on K-562 leukemia it was above 19 µM.
`COc1ncnc(NS(=O)(=O)c2ccc(N=C3C(=O)N(CN4CCN(c5c(F)cc6c(=O)c(C(=O)O)cn(C7CC7)c6c5OC)CC4C)c4ccc(Br)cc43)cc2)c1OC` (stereo unspecified): the GI50 was 15.3 µM in the assay with OVCAR-8 ovarian; above 50 µM with SNB-75 CNS; 3.99 µM in the assay on NCI-H460 lung; 19.7 µM in the assay on U251 CNS; 10.9 µM with DU-145 prostate; 15.6 µM in the assay with HT29 colon. Also, the GI50 in the assay on MCF7 breast was 7.1 µM; in the assay with RXF 393 renal, 12.9 µM; in the assay on A498 renal, 11.3 µM; with K-562 leukemia, 1.69 µM. Besides, the TGI is above 50 µM in the assay with OVCAR-8 ovarian; above 50 µM in the assay with SNB-75 CNS; 19.5 µM in the assay with NCI-H460 lung; above 50 µM in the assay with U251 CNS; 37.3 µM in the assay with DU-145 prostate; above 50 µM in the assay on HT29 colon. The TGI with MCF7 breast is 41.9 µM; with RXF 393 renal, 33 µM; with A498 renal it was above 50 µM; in the assay on K-562 leukemia, above 50 µM.
Regarding `COC(=O)[C@H]1CCCN1C(=O)[C@H]1CCCN1C(=O)[C@@H](Cc1c[nH]c2ccccc12)NC(=S)Nc1cc(C(F)(F)F)cc(C(F)(F)F)c1`, the GI50 in the assay with OVCAR-8 ovarian was 1.98 µM; in the assay with SNB-75 CNS, 1.52 µM; with NCI-H460 lung, 1.96 µM; in the assay on U251 CNS, 1.54 µM; in the assay with DU-145 prostate, 2.6 µM; in the assay on HT29 colon it was 1.75 µM. Besides, the GI50 with MCF7 breast is 2.16 µM; in the assay on RXF 393 renal, 1.34 µM; in the assay with A498 renal it was 1.67 µM; with K-562 leukemia, 2.4 µM. For the same compound, the TGI worked out at 3.94 µM in the assay with OVCAR-8 ovarian; 5.82 µM in the assay with SNB-75 CNS; 4.1 µM in the assay on NCI-H460 lung; 2.9 µM in the assay on U251 CNS; 6.79 µM in the assay with DU-145 prostate; 3.65 µM in the assay on HT29 colon. Further, the TGI in the assay on MCF7 breast worked out at 5.35 µM; with RXF 393 renal it was 2.72 µM; with A498 renal it was 5.65 µM; in the assay on K-562 leukemia it was 5.52 µM.
For `O=C1OC(C(O)CO)C(O)=C1O` (stereo unspecified), the GI50 was 1550 µM and 1510 µM in the assay on OVCAR-8 ovarian; 2460 µM and > 4760 µM with SNB-75 CNS; above 10000 µM with NCI-H460 lung; 1910 µM and 1840 µM with U251 CNS; 1610 µM and 1690 µM in the assay on DU-145 prostate; 2000 µM and 1870 µM in the assay with HT29 colon. Further, the GI50 in the assay with MCF7 breast was 233 µM and 489 µM; in the assay on RXF 393 renal, 1650 µM and 1750 µM; in the assay with A498 renal, 4650 µM and > 10000 µM; in the assay with K-562 leukemia, 378 µM and 337 µM. Further, the TGI with OVCAR-8 ovarian was 3050 µM and 3190 µM; in the assay on SNB-75 CNS it was 4050 µM and > 6140 µM; with NCI-H460 lung, above 10000 µM; in the assay on U251 CNS, 3400 µM and 3550 µM; in the assay with DU-145 prostate, 3040 µM and 3110 µM; in the assay on HT29 colon it was 4070 µM and 3750 µM. Moreover, the TGI is 502 µM and 1100 µM in the assay with MCF7 breast; 3080 µM and 3400 µM in the assay with RXF 393 renal; above 10000 µM in the assay with A498 renal; 1460 µM and 1210 µM in the assay with K-562 leukemia.
